“Also recorded” adds a separate entry of the source. Where two headings read alike, the source gives them in different places. One block for each compound: values may come before it.
Legend:
[1] = target: T1, human recombinant A1 adenosine receptors (Homo sapiens, UniProt P30542); assay: cyclic AMP production in CHO cells expressing the A1 adenosine receptor; assay type: cell-based
T1 construct: expressed in transfected cells; host or cells: CHO cells (CHO: huA1)
T1 sequence (P30542 1-326): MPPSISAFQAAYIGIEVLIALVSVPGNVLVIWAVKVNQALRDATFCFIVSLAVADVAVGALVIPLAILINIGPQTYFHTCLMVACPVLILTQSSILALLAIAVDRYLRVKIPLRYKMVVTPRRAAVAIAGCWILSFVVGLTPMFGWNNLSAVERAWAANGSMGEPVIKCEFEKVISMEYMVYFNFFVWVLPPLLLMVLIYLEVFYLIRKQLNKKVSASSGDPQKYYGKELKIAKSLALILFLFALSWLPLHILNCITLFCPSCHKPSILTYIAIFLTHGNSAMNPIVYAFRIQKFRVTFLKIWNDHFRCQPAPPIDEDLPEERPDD
Protocol: Cells were removed from liquid nitrogen storage when needed, and grown in Ham's F-12 culture medium with 10% fetal bovine serum and 0.5 mg/ml of antibiotic G-418. Aliquots of cells were placed into 12-well cultured plates with culture medium, serum, and antibiotic for 48-72 hours, by which time the cells had grown to a confluent monolayer.
To begin an experiment, growth medium was removed from the culture plates and cells were washed once with Hanks' buffered saline solution. […] After 6 min of incubation at 36° C. in the presence of drugs, the incubation solution was removed and hydrochloric (final concentration, 50 mM) was added to terminate drug action.
The content of cAMP in acidified extracts of cells was determined by radioimmunoassay as previously described (12). The compounds listed in reference 7 (U.S. Pat. No. 5,939,432) relating to allosteric enhancers, were tested using this method.
Because the magnitude of the effects of allosteric enhancers on cells changed with time and batch of cells, the actions of each test compound to enhance the effect of CPA (and thus reduce cAMP content of CHO cells) were normalized to the response of cells to 10 μM PD 81,723. […] Enhancement by Compound T62 began at 10 nM. There was no antagonism of this effect even at 10 μM of Compound T62.

[2] = tested on: mechanical hypersensitivity after spinal nerve ligation in the rat; assay: spinal nerve ligation model of neuropathic pain, von Frey withdrawal threshold; assay type: in vivo; details: for dose returning sensitivity (withdrawal threshold) to normal: rat
Description: Following Animal Care and Use Committee approval, mechanical hypersensitivity was generated in male Sprague-Dawley rats as described in the following paper. (Kim,S. H. and Chung, J. M., An experimental model for peripheral neuropathy produced by segmental spinal nerve ligation in the rat, Pain, 50 (1992) 355-363. Briefly, under general anesthesia with inhalational halothane, the left L5 and L6 spinal nerves were identified through a small laminotomy and tightly ligated. Approximately one week later, an intrathecal catheter was placed under general anesthesia by insertion under direct vision of a polyethylene catheter through a small slit in the dura at the cisterna magnum and advanced 8.5 cm such that the catheter tip resided in the lower lumbar intrathecal space. Animals were studied approximately one week later.
Ligation of the lumbar spinal nerves results in a primarily unilateral increase in the sensitivity to light touch on the operated side. Sensitivity was assessed via application of calibrated von Frey filaments. The withdrawal threshold was determined using an up down method as described in Chaplan, S. R., Bach, F. W., Pogrel, J. W., Chung, J. M., and Yaksh, T. L., Quantitative assessment of tactile allodynia in the rat paw, J. Neurosci. Methods, 53 (1994) 55-63.
Von Frey filaments are scientific apparatus designed to apply a pre-determined pressure to a surface. These filaments are flexible bristles with a flat tip. The applied pressure is determined by the diameter of the filament.
In these studies, the animals are placed on top of a wired cage. The goal of these studies is to determine the pressure at which the animal perceives the pressure applied as painful and lifts its foot. The scientist determines the discomfort pressure threshold by pressing the tip of von Frey filaments, one filament at a time, to the bottom of the foot through the wired cage floor. When a slight pressure is applied to the underside of the foot, the animal feels the sensation but it will not lift its foot because this sensation is not painful, or uncomfortable.
In a normal animal, the threshold for discomfort is approximately 35 g pressure. In an animal whose foot is rendered more sensitive to pressure, the withdrawal threshold is less than 4 g. That is, a pressure that is not perceived as pain in the unaltered, control foot will be perceived as a painful stimulus in the surgically altered foot.
Mechanical withdrawal threshold was determined before and at intervals after intrathecal injection of Compound T62, 1-5 μg. […] In the study, the investigator was blinded to the dose administered. Compound T62 was dissolved in cyclodextrin, which had no effect on withdrawal threshold when administered alone.
Animals received 6 injections, each separated by a minimum of 4 days to prevent development of tolerance. The withdrawal threshold to mechanical stimulation with von Frey filaments was determined before and at intervals of […] following intrathecal injection, then again at 20 hours following injection. A dose response was determined using the time of peak effect (2 hr for each compound) and the ED50 determined by linear regression.
The ED50 for the mixture (total of each component combined) was determined by linear regression, an isobologram constructed, and the observed ED50 was compared to the theoretical ED50 by a t-test as previously described in Tallarida, R. J., Statistical analysis of drug combinations for synergism, Pain, 49 (1992) 93-97. In order to determine the site of action of Compound T62, two experiments were performed. […]
Compound T62 was dissolved in 45% […] (RBI, Natick, Mass. ). Drugs were administered intrathecal in a 5 μl volume followed by 10 μl of saline to flush the catheter.
Data are presented as median±25th and 75th percentile (for raw withdrawal thresholds) or by mean±SE. Linear regression was used to calculate the ED50 for each drug alone and for the fixed ratio combination. […]

mouse = assay type: in vivo; details: 1024 mg/kg i.p., listed as Compound T-62
Protocol: As indicated above, Compound T62 is an effective treatment for neuropathic pain at a dose of 15 mg/kg by intraperitoneal (i.p.) injection. In addition, the safety of T62 was evaluated at 64, 128, 256, 512 and 1024 mg/kg (Table 1).

[3] = tested on: carrageenan-induced hyperalgesia in rats; assay: carrageenan paw model of inflammatory pain, Hargreaves thermal withdrawal; assay type: in vivo, rat
Protocol: Compound T62 was tested for its efficacy in treating inflammatory pain by use of the carrageenan paw model. Carrageenan is a water-extractable polysaccharide obtained from seaweeds. […] Carrageenan-induced hyperalgesia is believed to occur as a consequence of sensitization of primary afferent nociceptors and neuron plasticity intrinsic to the spinal cord.
Animals were prepared with chronic lumbar intrathecal catheters. Baseline measurement of hindpaw withdrawal latency to thermal stimulation were obtained on a Hargreaves device. Animals received a single intrathecal (IT) injection of Compound T-62 ranging from 0.5 to 40 μg. Withdrawal thresholds were measured on a Hargreaves device every 30 minutes for three hours.

[4] = tested on: phenylbenzoquinone-induced writhing in mice; assay: phenylbenzoquinone (PBQ) writhing test; assay type: in vivo, mouse
Protocol: Testing for use of Compound T62 in treatment of persistent chemical pain was performed following the phenylbenzoquinone (PBQ) writhing tests. This method detects general analgesic activity. Mice were injected with phenylbenzoquinone (PBQ) (1.25 mg/kg i.p.). […] The number of writhes was counted for 10 minutes beginning 5 minutes after injection of PBQ. 8 mice were studied for each treatment group and the test was performed blind.

[5] = target: T2, A1 receptor in rat forebrain membranes (Rattus norvegicus, UniProt P25099); details: compound 30 in reference (5), Bruns et al.; read-out: ED50 as an enhancer; cited from earlier work
T2 construct: from tissue; host or cells: rat forebrain membranes
T2 sequence (P25099 1-326): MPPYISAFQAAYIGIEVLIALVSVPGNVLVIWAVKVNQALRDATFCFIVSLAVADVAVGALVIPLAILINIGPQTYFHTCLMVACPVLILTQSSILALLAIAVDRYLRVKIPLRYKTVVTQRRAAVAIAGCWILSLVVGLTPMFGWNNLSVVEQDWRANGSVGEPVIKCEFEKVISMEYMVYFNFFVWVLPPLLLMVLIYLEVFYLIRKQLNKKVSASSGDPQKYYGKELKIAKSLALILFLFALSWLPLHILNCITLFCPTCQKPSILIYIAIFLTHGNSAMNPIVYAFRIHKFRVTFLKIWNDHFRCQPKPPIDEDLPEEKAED

A1 adenosine receptor [6] = target: T3, A1 adenosine receptor (Rattus norvegicus, UniProt P25099); details: rat brain, cited from earlier work
T3 construct: from tissue; host or cells: rat brain
T3 sequence (P25099 1-326): T2 sequence (P25099 1-326)

A1 adenosine receptor [7] = target: T4, A1 adenosine receptor (Cavia porcellus, UniProt P47745); details: isolated guinea pig left atrium; cited from earlier work
T4 construct: functional studies conducted in the isolated guinea pig left atrium and isolated ileum; from tissue; host or cells: isolated guinea pig ileum
T4 sequence (P47745 1-326): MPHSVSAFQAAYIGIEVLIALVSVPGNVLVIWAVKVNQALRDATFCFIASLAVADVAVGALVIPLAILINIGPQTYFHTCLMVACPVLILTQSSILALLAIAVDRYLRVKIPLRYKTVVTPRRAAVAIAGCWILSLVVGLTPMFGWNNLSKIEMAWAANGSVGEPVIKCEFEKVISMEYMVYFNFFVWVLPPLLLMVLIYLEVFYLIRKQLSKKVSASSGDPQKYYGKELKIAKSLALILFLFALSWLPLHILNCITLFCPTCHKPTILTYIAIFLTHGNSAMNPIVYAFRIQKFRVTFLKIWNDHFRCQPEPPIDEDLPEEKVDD

A1 adenosine receptor [8] = target: T4, A1 adenosine receptor; details: isolated ileum; cited from earlier work

enhancer potency compared to PD 81,723 ([1]; CHO:huA1 cells cAMP): more potent enhancer than PD 81,723 | concentration at which enhancement of the CPA induced inhibition of cyclic AMP production began ([1]; CHO:huA1 cells, forskolin 1 μM, CPA, normalized to 10 μM PD 81,723): 10 nM | motor effect ([2]; intrathecal doses larger than 1-5 μg): obvious motor blockade | Irwin test observations (mouse): tremor and tip-toe gait
Compound: Nc1sc2c(c1C(=O)c1ccc(Cl)cc1)CCCC2 [Compound T62, (2-Amino-4,5,6,7-tetrahydrobenzo[b]thiophen-3-yl)(4-chlorophenyl)methanone]
antagonism of the A1 receptor ([1]; at 10 μM Compound T62): does not antagonize; also recorded: no antagonism | duration of effect on withdrawal threshold ([2]; IP injection, 15 mg/kg): at least 4 hours | effect on hypersensitivity ([2]; intraperitoneal injection, 15 mg/kg): effective to reduce hypersensitivity | dose required for efficacy ([2]; intraperitoneal, rats, neuropathic pain): 15 mg/kg | effect of intraperitoneal Compound T62 after A1 antagonist ([2]; intrathecal DPCPX (5 μg)): blocked | duration of effect on withdrawal threshold ([2]; intrathecal injection): over 4 hours | time of peak effect ([2]; intrathecal injection): 2 h | dose returning sensitivity (withdrawal threshold) to normal ([2]; intrathecal injection): 5 µg | dose sufficient to completely reverse hypersensitivity of the inflamed foot to pre-carrageenan levels ([3]; intrathecal, rats with 2 mg intraplantar carrageenan, n=4): 1 µg | effect on withdrawal thresholds ([3]; normal rats, intrathecal 0.5 to 40 μg): no significant effect | NUMBER OF WRITHES (5 to 1 5 min after phenylbenzoquinone) mean ± s.e.m. ([4]; 128 mg/kg i.p. −30 minutes): 13.9 ± 3.4 | percent change from control ([4]; 128 mg/kg i.p. −30 minutes): −18% | NUMBER OF WRITHES (5 to 1 5 min after phenylbenzoquinone) mean ± s.e.m. ([4]; 128 mg/kg i.p. −1 hour): 10.9 ± 2.6 | percent change from control ([4]; 128 mg/kg i.p. −1 hour): −58% | NUMBER OF WRITHES (5 to 1 5 min after phenylbenzoquinone) mean ± s.e.m. ([4]; 128 mg/kg i.p. −2 hours): 17.3 ± 2.0 | percent change from control ([4]; 128 mg/kg i.p. −2 hours): −38% | NUMBER OF WRITHES (5 to 1 5 min after phenylbenzoquinone) mean ± s.e.m. ([4]; 128 mg/kg i.p. −4 hours): 13.1 ± 3.5 | percent change from control ([4]; 128 mg/kg i.p. −4 hours): −36% | NUMBER OF WRITHES (5 to 1 5 min after phenylbenzoquinone) mean ± s.e.m. ([4]; 128 mg/kg i.p. −8 hours): 15.3 ± 4.1 | percent change from control ([4]; 128 mg/kg i.p. −8 hours): +11% | NUMBER OF WRITHES (5 to 1 5 min after phenylbenzoquinone) mean ± s.e.m. ([4]; 512 mg/kg i.p. −30 minutes): 5.9 ± 2.2 | percent change from control ([4]; 512 mg/kg i.p. −30 minutes): −65% | NUMBER OF WRITHES (5 to 1 5 min after phenylbenzoquinone) mean ± s.e.m. ([4]; 512 mg/kg i.p. −1 hour): 6.4 ± 1.0 | percent change from control ([4]; 512 mg/kg i.p. −1 hour): −75% | NUMBER OF WRITHES (5 to 1 5 min after phenylbenzoquinone) mean ± s.e.m. ([4]; 512 mg/kg i.p. −2 hours): 3.5 ± 1.8 | percent change from control ([4]; 512 mg/kg i.p. −2 hours): −87% | NUMBER OF WRITHES (5 to 1 5 min after phenylbenzoquinone) mean ± s.e.m. ([4]; 512 mg/kg i.p. −4 hours): 4.8 ± 1.5 | percent change from control ([4]; 512 mg/kg i.p. −4 hours): −77% | NUMBER OF WRITHES (5 to 1 5 min after phenylbenzoquinone) mean ± s.e.m. ([4]; 512 mg/kg i.p. −8 hours): 6.0 ± 1.9 | percent change from control ([4]; 512 mg/kg i.p. −8 hours): −56% | dose required for efficacy ([4]; intraperitoneal, mice, chemically induced pain): 128 mg/kg | EC50 [5]: 15.3 µM

Compound: CCOC(=O)N1CCc2c(sc(N)c2C(=O)c2ccccc2)C1 [PD 78,416]
enhancement of [3H]CHA binding (A1 adenosine receptor [6]; competition studies): not observed | effect on dissociation of [3H]CHA binding (A1 adenosine receptor [6]): retards the dissociation | enhancement of the effect of the agonist CPA (A1 adenosine receptor [7]): enhanced the effect | enhancement of the effect of the agonist CPA (A1 adenosine receptor [8]): failed to enhance

Compound: Nc1ncnc2c1ncn2[C@@H]1O[C@H](CO)[C@@H](O)[C@H]1O [adenosine, reference compound]
time of peak effect ([2]; intrathecal injection): 2 h | dose returning sensitivity (withdrawal threshold) to normal ([2]; intrathecal injection): 30 µg

Reference: patent publication US6489356B2, “Method for treating pain in humans” (priority 2000, dated 2002)
